Substitutions are numbered along the chain they refer to. Where two headings read alike, the source gives them in different places.
Assays:
[1] = male, Wistar Han, rat, in vivo, po
Procedure: Systemic exposure of various forms of N-((1r,3r)-3-(4-cyano-3-methoxyphenoxy)-2,2,4,4-tetramethylcyclobutyl)-4-(4-((4-(4-(2,4-dioxotetrahydropyrimidin-1(2H)-yl)-1H-pyrazolo[4,3-c]pyridin-1-yl)piperidin-1-yl)methyl)piperidin-1-yl)-3-fluorobenzamide were assessed following oral administration of 30 mg/kg of a suspension formulation (1% methylcellulose (aq)) or following oral administration of 35 mg/kg of a suspension formulation (100% PEG400) in the male Wistar Han rat. […] The sampling period was 72 hours, and the data is reported in the attached table as mean±SD (n=3).

[2] = biological target: T1, wild type androgen receptor (Homo sapiens, UniProt P10275); assay: Degradation of overexpressed Androgen Receptor in A549 cells (HiBiT), wild type; format: cell-based; conditions: A549 cells overexpressing AR WT, cycloheximide, 24 hours
T1 construct: expressed in transfected cells; host or cells: A549, transduced, puromycin selected
T1 sequence (P10275 1-920): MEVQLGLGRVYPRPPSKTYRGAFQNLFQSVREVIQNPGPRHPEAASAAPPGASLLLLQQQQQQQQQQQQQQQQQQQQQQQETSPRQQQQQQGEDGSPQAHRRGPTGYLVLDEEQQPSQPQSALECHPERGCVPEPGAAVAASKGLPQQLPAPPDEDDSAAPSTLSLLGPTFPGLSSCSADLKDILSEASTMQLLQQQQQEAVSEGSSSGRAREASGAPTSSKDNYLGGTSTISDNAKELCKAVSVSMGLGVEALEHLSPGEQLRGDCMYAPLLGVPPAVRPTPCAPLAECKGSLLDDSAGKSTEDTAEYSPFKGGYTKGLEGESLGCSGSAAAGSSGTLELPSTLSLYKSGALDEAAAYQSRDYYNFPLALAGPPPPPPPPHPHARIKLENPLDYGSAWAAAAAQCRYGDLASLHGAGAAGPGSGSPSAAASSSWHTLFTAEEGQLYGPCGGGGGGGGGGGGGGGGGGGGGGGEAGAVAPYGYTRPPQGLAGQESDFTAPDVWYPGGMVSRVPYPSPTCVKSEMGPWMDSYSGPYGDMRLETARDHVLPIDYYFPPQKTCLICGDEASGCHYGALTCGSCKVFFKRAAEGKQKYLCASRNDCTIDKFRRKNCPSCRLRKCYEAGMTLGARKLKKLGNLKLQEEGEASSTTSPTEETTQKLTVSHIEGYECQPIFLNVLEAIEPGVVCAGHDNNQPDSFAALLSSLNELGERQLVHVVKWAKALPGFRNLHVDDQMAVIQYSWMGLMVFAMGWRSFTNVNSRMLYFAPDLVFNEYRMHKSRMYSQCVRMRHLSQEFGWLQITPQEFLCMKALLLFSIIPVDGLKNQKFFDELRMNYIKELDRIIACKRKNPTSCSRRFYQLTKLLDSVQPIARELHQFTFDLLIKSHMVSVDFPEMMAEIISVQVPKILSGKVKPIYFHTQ
Procedure: (§1) A549 cells were transduced to express wild type androgen receptor and Androgen receptor containing the following mutations (L702H, H875Y W742C W742L F877L, T878A and T878A/H875Y) with HiBiT tags. Transduced cells following puromycin selection were maintained in a humidified incubator (at 37° C. and 5% CO2 in the DMEM medium supplemented with 1% (v/v) Pen/Strep, 1% (v/v) Glutamax and 10% (v/v) FBS. A549 cells expressing each AR construct were detached from plate and counted. Cell suspensions at density 0.2 million per mL were prepared. Cell suspension was supplemented with 100 μg/mL of cycloheximide to block protein synthesis. Cells were preincubated with cycloheximide for 1 hr before seeding. Cells were seeded onto 384-well plate at density of 5,000 in 25 μL per well. A two fold serial dilution of test compounds, starting from 1 μM (row A) in 2-fold serial dilution series across the column using Tecan D300e dispenser. […]
(§2) Nano-Glo HiBiT Lytic reagent was prepared by adding LgBiT protein and Nano-Glo® substrate to lytic buffer pre-equilibrated at room temperature following manufacturer protocol (https://www.promega.co.uk/resources/protocols/technical-manuals/101/nanoglo-luciferase-assay-system-protocol). […] The plates were then centrifuged (100×G, 1 min) and incubated on shaker for 10 mins before taking readings on Pherastar Luminescence microplate reader. […]

[3] = biological target: T2, Androgen receptor T878A/H875Y (Homo sapiens, UniProt P10275, H875Y/T878A); assay: Degradation of overexpressed Androgen Receptor in A549 cells (HiBiT), T878A/H875Y; format: cell-based; conditions: A549 cells overexpressing AR T878A.H875Y, cycloheximide, 24 hours
T2 construct: expressed in transfected cells; host or cells: A549, transduced, puromycin selected
T2 sequence (P10275 1-920 H875Y/T878A): T1 sequence (P10275 1-920) with H875Y, T878A
Procedure: as §1, §2

Dose Normalised AUC0-t ([1]; 30 mg/kg): 240 ± 38 (ng · h/mL)/(mg/kg | Dose Normalised AUC0-t ([1]; 35 mg/kg): 744 ± 66 (ng · h/mL)/(mg/kg | Summary pXC50 [2]: 8.95 | Summary pXC50 [3]: 8.57
Structure (SMILES): COc1cc(O[C@H]2C(C)(C)[C@H](NC(=O)c3ccc(N4CCC(CN5CCC(n6ncc7c(N8CCC(=O)NC8=O)nccc76)CC5)CC4)c(F)c3)C2(C)C)ccc1C#N [Example 20, N-((1r,3r)-3-(4-Cyano-3-methoxyphenoxy)-2,2,4,4-tetramethylcyclobutyl)-4-(4-((4-(4-(2,4-dioxotetrahydropyrimidin-1(2H)-yl)-1H-pyrazolo[4,3-c]pyridin-1-yl)piperidin-1-yl)methyl)piperidin-1-yl)-3-fluorobenzamide]

Reference: patent US12577231B2, “Androgen receptor PROTACS” (GlaxoSmithKline Intellectual Property Development Limited, priority 2023, dated 2026)
